As usually defined, the pIC50 is the negative decadic logarithm of the IC50, by convention in mol/L. As a reminder, the pKi is the Ki on a negative log10 scale, so that one unit is a factor of ten.

One experiment concerns the target T1, 5-HT2A receptor (Homo sapiens, UniProt P28223).
T1 construct: expressed in transfected cells; alternatively human cortex tissue
The experiment in a line: radioligand binding assay for 5-HT2A receptor ([3H]-ketanserin). To be noted: human cortex or recombinant 5-HT2A receptor expressed in CHO-K1 cells; for pIC50: read-out: binding affinity to 5-HT2A serotonin receptor expressed as IC50 value; for pKi: read-out: binding affinity to 5-HT2A serotonin receptor, Ki value. The method, then: (§1) The effect of the compounds of the present invention on the neurochemical steady state was determined by in vitro investigations such as a radionuclide-marked radioligand binding assay for 5-HT2A (Bonhaus D. W. Br. J. Pharmacol. 1995, 115:622; Saucier C. J. Neurochem. 1997, 68:1998) and 5-HT2C receptors (Wolf W. A. J. Neurochem. 1997, 69:1449), in vitro binding assay for the σ1 receptor (Thomson W. and Donn R. Arthritis Res. 2002, 4: 302-306) and by in vivo investigations in a tail suspension test (Vogel H. G. and Vogel W. H. Drug Discovery and Evaluation Pharmacological Assays, Springer 1997, 304), in amphetamine-induced hyperlocomotion in mice (Millan M. J. et al, 1998 J. Pharmacol. Exp. Ther. 287: 167-186), in a forced swim test in mice (Porsolt R. D. et al. Arch. Int. Pharmacodyn. 1977, 229:327-336), in meta-chlorophenyl piperazine (m-CPP) test on rats (Drug Dev. Res. 1989, 18:119-144), and in apomorphine, tryptamine, norepinephrine (ATN) test in rats (Arch. Int. Pharmacodyn. 1977, 227:238-253).
(§2) A small concentration of a radioligand having a great affinity for binding to a receptor was incubated with a tissue sample enriched with a certain receptor (1-5 mg of tissue) in a buffered medium (0.2-5 mL). Recombinant human HT2A and HT2C receptors were expressed in CHO-K1 or COS-7 cells and were also used for competitive binding. During incubation the radioligand bound to the receptor. When a binding balance was achieved, the receptors to which the radioligand was bound were separated from those to which said ligand was not bound, and the radioactivity of the receptor/radioligand complex was measured. The interaction of the tested compounds with receptors was tested in competitive binding experiments. Various concentrations of tested compounds were added to the incubation mixture containing a prepared tissue enriched with corresponding receptors and the radioligand. The radioligand binding was inhibited by the test compounds proportionally to the affinity of a certain compound for the receptor and to the concentration of the compound.
The radioligand used for the determination of binding to 5-HT2A receptor was [^3H]-ketanserin and the tissue used was human cortex or recombinant 5-HT2A receptor expressed in CHO-K1 cells.

The next experiment deals with T2, 5-HT2C receptor (Homo sapiens, UniProt P28335).
T2 construct: expressed in transfected cells; alternatively choroid plexus tissue
T2 sequence (P28335 33-458): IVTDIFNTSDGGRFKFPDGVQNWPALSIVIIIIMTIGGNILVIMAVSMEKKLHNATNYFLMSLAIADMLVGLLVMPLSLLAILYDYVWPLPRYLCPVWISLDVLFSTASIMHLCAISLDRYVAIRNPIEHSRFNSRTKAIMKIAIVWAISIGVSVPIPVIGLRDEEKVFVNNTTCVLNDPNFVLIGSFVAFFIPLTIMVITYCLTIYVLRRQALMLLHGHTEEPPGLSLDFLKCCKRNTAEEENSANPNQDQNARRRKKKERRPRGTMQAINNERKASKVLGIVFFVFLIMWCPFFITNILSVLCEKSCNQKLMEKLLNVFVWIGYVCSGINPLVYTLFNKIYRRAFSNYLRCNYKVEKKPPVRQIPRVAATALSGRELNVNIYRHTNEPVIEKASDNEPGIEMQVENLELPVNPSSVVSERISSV
The experiment in a line: radioligand binding assay for 5-HT2C receptor ([3H]-mesulergine). To be noted: choroid plexus or recombinant 5-HT2C receptor expressed in CHO-K1 cells; for pIC50: read-out: binding affinity to 5-HT2C serotonin receptor expressed as IC50 value; for pKi: read-out: binding affinity to 5-HT2C serotonin receptor, Ki value. The method, then:
as §1, §2
The radioligand used for the determination of binding to 5-HT2C receptor was [^3H]-mesulergine and the tissue used was choroid plexus or recombinant 5-HT2C receptor expressed in CHO-K1 cells.

pIC50, pKi: −log10 of the molar value.

T1 sequence (P28223 whole entry): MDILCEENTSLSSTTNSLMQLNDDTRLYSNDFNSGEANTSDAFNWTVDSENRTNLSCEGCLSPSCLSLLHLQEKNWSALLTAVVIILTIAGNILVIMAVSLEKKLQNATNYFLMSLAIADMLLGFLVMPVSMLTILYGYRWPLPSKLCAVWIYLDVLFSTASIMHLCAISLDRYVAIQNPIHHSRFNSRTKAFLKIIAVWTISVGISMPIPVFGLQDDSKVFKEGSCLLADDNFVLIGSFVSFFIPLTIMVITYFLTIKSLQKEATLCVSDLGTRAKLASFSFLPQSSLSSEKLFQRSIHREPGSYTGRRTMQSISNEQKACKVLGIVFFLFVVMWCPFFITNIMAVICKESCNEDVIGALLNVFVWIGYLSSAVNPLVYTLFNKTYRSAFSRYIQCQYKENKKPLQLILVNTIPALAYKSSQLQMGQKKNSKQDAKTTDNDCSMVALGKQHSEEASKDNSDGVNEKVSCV

`CN(C)CCOCc1n[nH]c2c1-c1ccccc1Oc1ccc(Cl)cc1-2` [[2-(11-chloro-1H-8-oxa-1,2-diaza-dibenzo[e,h]azulen-3-ylmethoxy)-ethyl]-dimethyl-amine]: on 5-HT2A receptor, the pIC50 was over 6.70 and the pKi was over 7.00. On 5-HT2C receptor, the pIC50 was over 6.70 and the pKi was over 7.00.
With `CN(C)CCCOCc1c2c(nn1CCc1ccccc1)-c1ccccc1Sc1ccccc1-2` [dimethyl-[3-(2-phenethyl-2H-8-thia-1,2-diaza-dibenzo[e,h]azulen-3-ylmethoxy)-propyl]-amine], the pIC50 at 5-HT2A receptor and on 5-HT2C receptor was over 6.70 throughout. Moreover, the pKi at 5-HT2A receptor and at 5-HT2C receptor was over 7.00 in each case.
For the compound `CN(C)CCCOCc1n[nH]c2c1-c1ccccc1Sc1ccccc1-2` [dimethyl-[3-(11H-8-thia-1,2-diaza-dibenzo[e,h]azulen-3-ylmethoxy)-propyl]-amine], on 5-HT2A receptor, the pIC50 was over 6.70 and the pKi is over 7.00. In addition, on 5-HT2C receptor, the pIC50 is over 6.70 and the pKi is over 7.00.

These data come from patent US20070173492A1, “1,2-Diaza-dibenzo[e,h]azulenes for the treatment of central nervous system diseases and disorders” (Pliva-Istrazivacki Institut d.o.o., priority 2003, published 2007).
